In this test the test system is HCC. Put plainly: Safety and efficacy study of TTI-101 in advanced solid tumors: best response (RECIST v1.1) in HCC participants. Type of test: in vivo, human. The note with it: for time partial response was sustained / best response: reduction in the sum of overall RECIST targets: non-viral HCC. The protocol:
This study evaluates the safety and efficacy of TTI-101 in advanced solid tumors. TTI-101 was administered twice daily at doses of 1.6 (Cohort 1; n=4), 3.2 (Cohort 2; n=3), or 6.4 mg/kg/dose (Cohort 3; n=8) of a Labrasol/PEG400 formulation (60:40% v/v) or 6.4 mg/kg/dose (Cohort 3a: n=37) or 12.8 mg/kg/dose (Cohort 4; n=10) of oral capsule formulation (composition comprising TTI-101 at a concentration of 92 mg/g in a mixture of Kolliphor RH 40 (PEG-40 hydrogenated castor oil). PEG600. Polysorbate 20, Labrasol, and citric acid). TTI-101 was administered twice daily at 6.4 mg/kg/dose (Cohort 5; n=7) of oral tablet formulation (comprising 200 mg of TTI-101).
These patients had failed all prior lines of therapy (median number of prior therapies=3). Furthermore, a disease control rate (defined as the proportion of patients in whom the best overall response is determined as complete response, partial response or stable disease according to RECIST v1.1) of 60% has been observed in the 15 heavily pre-treated HCC patients (9/15), which is similar to that reported with sorafenib in first-line therapy.

[1] abbreviates: number of participants, 7 non-viral HCC participants.
[2] abbreviates: number of participants, 8 viral HCC participants.
[3] abbreviates: number of participants, all 15 evaluable HCC participants.

`COc1ccc(S(=O)(=O)Nc2cc(-c3c(O)ccc4ccccc34)c(O)c3ccccc23)cc1` [TTI-101, N-(1′,2-dihydroxy-1,2′-binaphthalen-4′-yl)-4-methoxybenzenesulfonamide]: the “Disease Control Rate, HCC (non-viral)” value (7 non-viral HCC participants) is 57%. The “Disease Control Rate, HCC (viral)” value (8 viral HCC participants) turned out to be 63%. Further, where the note is “Participant A, 6.4 mg/kg/day”, the “time partial response was sustained” value is given as 11 months. The “best response: reduction in the sum of overall RECIST targets” value (from here on “best response: reduction in the sum”) (Participant A, 6.4 mg/kg/day, failed sorafenib, pembrolizumab, nivolumab, nivolumab+bevacizumab) turned out to be 42%. Further, the “time partial response was sustained” value (Participant B, 12.8 mg/kg/day) is on record as 14 months. In addition, the “best response: reduction in the sum” value (Participant B, 12.8 mg/kg/day, failed lenvatinib and nivolumab) amounted to 66%. Moreover, the “best response: reduction in the sum” value (Participant C, 12.8 mg/kg/day, failed atezolizumab+bevacizumab) worked out at 45%. Besides, under “complete response, partial response or stable disease by RECIST v1.1, 15 heavily pre-treated HCC patients (9/15)”, the “Disease Control Rate, HCC” value turned out to be 60%. Moreover, under setting [1], the “Progressive Disease, HCC (non-viral)” value stood at 3 and the “Stable Disease, HCC (non-viral)” value was 1. In addition, the “Partial Response, HCC (non-viral)” value (number of participants, 7 non-viral HCC participants, TTI-101 monotherapy) came out at 3. Moreover, under setting [2], the “Progressive Disease, HCC (viral)” value is recorded as 3 and the “Stable Disease, HCC (viral)” value was 5. Under “number of participants, 8 viral HCC participants, TTI-101 monotherapy”, the “Partial Response, HCC (viral)” value was determined as 0. Under setting [3], the “Progressive Disease, HCC” value was 6 and the “Stable Disease, HCC” value was 6. For the same compound, the “Partial Response, HCC” value (number of participants, all 15 evaluable HCC participants, TTI-101 monotherapy, after two 28-day cycles, radiologically confirmed) came out at 3.

(Values after patent US20260137638A1, “STAT3 INHIBITORS FOR USE IN THE TREATMENT OF NON-VIRAL LIVER CANCER” (Tyardi Operating Company, Inc., priority 2022, published 2026).)
